# pIC50: −log10 of the molar value.
# Target: T1, mitochondrial sodium-calcium exchanger (mNCE) (Rattus norvegicus, UniProt Q6AXS0)
# T1 construct: from tissue; host or cells: rat whole brain, isolated mitochondria
# T1 sequence (Q6AXS0 27-585): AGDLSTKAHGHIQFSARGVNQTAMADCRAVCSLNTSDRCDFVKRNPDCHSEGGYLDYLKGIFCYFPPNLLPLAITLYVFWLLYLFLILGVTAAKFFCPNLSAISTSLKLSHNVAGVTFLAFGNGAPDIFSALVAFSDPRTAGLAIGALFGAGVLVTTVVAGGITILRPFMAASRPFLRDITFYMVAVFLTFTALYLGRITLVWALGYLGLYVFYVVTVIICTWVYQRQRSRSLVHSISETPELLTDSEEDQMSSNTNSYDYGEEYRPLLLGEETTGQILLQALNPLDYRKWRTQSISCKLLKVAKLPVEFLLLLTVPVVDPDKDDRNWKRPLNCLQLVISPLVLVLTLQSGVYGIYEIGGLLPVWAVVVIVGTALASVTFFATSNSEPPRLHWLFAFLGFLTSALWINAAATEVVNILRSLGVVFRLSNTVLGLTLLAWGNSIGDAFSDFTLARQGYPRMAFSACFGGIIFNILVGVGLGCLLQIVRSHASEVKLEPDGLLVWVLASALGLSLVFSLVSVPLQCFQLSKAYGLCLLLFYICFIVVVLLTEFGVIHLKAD
# Assay: Measurement of the Na-Ca exchanger of rat brain mitochondria (Na-induced Ca-release, Oregon Green fluorescence)
# Format: biochemical
# Conditions: isolated rat brain mitochondria; Ca-efflux rates induced by 20 mM NaCl; rt
# Experimental: The method is adapted from the method of Rosenthal et al. [J. Cereb. Blood Flow Metab., 7, 752-758 (1987)].
# MSH+: 225 mM mannitol, 75 mM sucrose, 5 mM Hepes, 0.5 mM EDTA, 1 mg/ml of BSA (essentially free fatty acid free); final pH=7.3.
# MSH−: Equal to MSH+, but without EDTA.
# Nagarse solution: 5 mg of nagarse (bacterial protease type XXIV from Sigma, St. Louis, USA, catalogue # P-8038) dissolved in 1 ml of MSH+.
# Digitonin solution: 10% W/V in DMSO.
# The entire procedure is performed on ice. Remove the whole brain from the rat (1 brain=2 g). Add the tissue to cold MSH+in a beaker on ice. Cut the tissue into small pieces using scissors and wash the tissue 2 times with MSH+. Transfer the tissue into a 20 ml Dounce homogenizer and set level to about 9 ml with MSH+. Add 1 ml of freshly made Nagarse solution. Homogenize (6 strokes with a loose and 6 strokes with a tight pestle). […] The protein concentration is determined using the Pierce BCA assay (Pierce, Rockford Ill., USA). […]
# In a typical experiment 96-well microtiter plates (flat bottom) are used. […] Distribute in a 96-well plate 5 μl/well of 2 μM ruthenium red [in 120 mM KCl and 20 mM Tris (pH=7.4)] and the compounds (in DMSO) to be analyzed (1 μl/well). […] Measure the Ca-release induced by the addition of Na by monitoring the Oregon Green fluorescence (485 nm and 538 nm monochromators for excitation and emission, respectively). […]
structure (smiles),measurement,value
"O=C1CS(=O)(=O)C(c2ccccc2Cl)c2cc(Cl)ccc2N1 (stereo not shown) [Example 1, 2-Chloro-9-(2-chlorophenyl)-8,8-dioxo-5,7,8,9-tetrahydro-8lambda*6*-thia-5-aza-benzocyclohepten-6-one]",pIC50,5.42

# — US20090281077A1, “Cyclic sulfones useful as mitochondrial sodium-calcium exchangers” (priority 2006, published 2009)
